Laboratory results published in PubChem BioAssay AID1963982 (Molecular Pharmacology Branch, DTP, NCI, 2024).

Test system: 313798-341-R-J2-PDC spheroids, viability
Experiment: Anticancer human tumor 313798-341-R-J2-PDC patient-derived cervical squamous cell carcinoma cell line growth inhibition [PI3K]
Conditions: spheroids with HUVEC and MSC; for viability, T/C: stronger effect = lower value; active = viability on the fitted dose curve at most 10% of control; inactive = the rest
Procedure, shortened: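 Agents were dosed from a top concentration near clinical Cmax (otherwise 10 microM) in half-log decrements, alone or combined with PI3K inhibitors. The spheroids contain tumor cells plus endothelial (HUVEC) and MSC stroma; viability is measured.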
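Also: spheroids exposed to compounds for seven days.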
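For viability, T/C in this document: 100% = DMSO vehicle control viability.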

Cn1ncnc1[C@H]1c2n[nH]c(=O)c3cc(F)cc(c23)N[C@@H]1c1ccc(F)cc1 + Cc1nc(NC(=O)N2CCCC2C(N)=O)sc1-c1ccnc(C(C)(C)C(F)(F)F)c1
< 0.316 nM: IC50 (curve of first compound, second compound 10 µM)
> 100 nM: IC50 (curve of first compound, second compound 0.0316 µM) | IC50 (curve of first compound, second compound 0.1 µM) | IC50 (curve of first compound, second compound 0.316 µM) | IC50 (curve of first compound, second compound 1 µM) | IC50 (curve of first compound, second compound 3.16 µM)
inactive: viability, T/C (second compound 0.0316 µM, first compound 0.000316 µM) 112% | viability, T/C (second compound 0.0316 µM, first compound 0.001 µM) 90% | viability, T/C (second compound 0.0316 µM, first compound 0.00316 µM) 97.6% | viability, T/C (second compound 0.0316 µM, first compound 0.01 µM) 96.1% | viability, T/C (second compound 0.0316 µM, first compound 0.0316 µM) 93.9% | viability, T/C (second compound 0.0316 µM, first compound 0.1 µM) 95.7% | viability, T/C (second compound 0.1 µM, first compound 0.000316 µM) 98.7% | viability, T/C (second compound 0.1 µM, first compound 0.001 µM) 103% | viability, T/C (second compound 0.1 µM, first compound 0.00316 µM) 98.2% | viability, T/C (second compound 0.1 µM, first compound 0.01 µM) 97.8% | viability, T/C (second compound 0.1 µM, first compound 0.0316 µM) 92.6% | viability, T/C (second compound 0.1 µM, first compound 0.1 µM) 87% | viability, T/C (second compound 0.316 µM, first compound 0.000316 µM) 97.7% | viability, T/C (second compound 0.316 µM, first compound 0.001 µM) 100% | viability, T/C (second compound 0.316 µM, first compound 0.00316 µM) 110% | viability, T/C (second compound 0.316 µM, first compound 0.01 µM) 90.7% | viability, T/C (second compound 0.316 µM, first compound 0.0316 µM) 102% | viability, T/C (second compound 0.316 µM, first compound 0.1 µM) 80.8% | viability, T/C (second compound 1 µM, first compound 0.000316 µM) 92.2% | viability, T/C (second compound 1 µM, first compound 0.001 µM) 86.3% | viability, T/C (second compound 1 µM, first compound 0.00316 µM) 82.9% | viability, T/C (second compound 1 µM, first compound 0.01 µM) 72.5% | viability, T/C (second compound 1 µM, first compound 0.0316 µM) 79.1% | viability, T/C (second compound 1 µM, first compound 0.1 µM) 71.5% | viability, T/C (second compound 3.16 µM, first compound 0.000316 µM) 59.6% | viability, T/C (second compound 3.16 µM, first compound 0.001 µM) 61% | viability, T/C (second compound 3.16 µM, first compound 0.00316 µM) 59% | viability, T/C (second compound 3.16 µM, first compound 0.01 µM) 54.9% | viability, T/C (second compound 3.16 µM, first compound 0.0316 µM) 59.6% | viability, T/C (second compound 3.16 µM, first compound 0.1 µM) 49.4% | viability, T/C (second compound 10 µM, first compound 0.000316 µM) 35.9% | viability, T/C (second compound 10 µM, first compound 0.001 µM) 36.8% | viability, T/C (second compound 10 µM, first compound 0.00316 µM) 38.2% | viability, T/C (second compound 10 µM, first compound 0.01 µM) 34.2% | viability, T/C (second compound 10 µM, first compound 0.0316 µM) 33.2% | viability, T/C (second compound 10 µM, first compound 0.1 µM) 28.3%

CC(Nc1ncnc2nc[nH]c12)c1cc2cccc(Cl)c2c(=O)n1-c1ccccc1 (centres undefined)
> 10000 nM: IC50 (compound alone, run of 04/25/2023)
inactive: viability, T/C (compound 0.0316 µM) 100% [middle of 8 runs] | viability, T/C (compound 0.1 µM) 95.1% [middle of 8 runs] | viability, T/C (compound 0.316 µM) 99.5% [middle of 8 runs] | viability, T/C (compound 1 µM) 97.6% [middle of 8 runs] | viability, T/C (compound 3.16 µM) 94.7% [middle of 8 runs] | viability, T/C (compound 10 µM) 89.6% [middle of 8 runs]
